Square brackets hold non-standard residues; d marks the D form. Peptide text beside a SMILES is read from it. * marks the point of attachment. Dolaproine = CO[C@@H]([C@@H]1CCCN1)[C@@H](C)C(=O)O; Dil = CC[C@H](C)[C@H](NC)[C@@H](CC(=O)O)OC; X1 = C[C@@H](N*)[C@@H](O)c1ccccc1; NMeV = CN[C@H](C(=O)O)C(C)C
What was measured:
CAL-27 cells [1] = assay: Phase contrast microscopy; format: cell-based, human; conditions: 2 nM overnight
Description: Cells were fixed at indicated times and imaged for Cy5 fluorescence (red). Nuclei stained with DAPI (blue). Scale bar, 10 gm. Representative images of three independent experiments. […] Nuclei stained with DAPI (blue). Scale bar, 10 gm. Representative images of three independent experiments. […] Representative data of two independent experiments. […] Representative images of three independent experiments. Scale bar, 50 gm.

CAL-27 cells [2] = assay: Cell cycle (propidium iodide, flow cytometry); format: cell-based, human; conditions: treated overnight
Method: (§1) Cells were treated with RNAse, stained with propidium iodide (PI) and analysed by FACS using FloJo software.

OE19 cells [3] = assay: Cell cycle (propidium iodide, flow cytometry); format: cell-based, human; conditions: treated overnight
Method: as §1

[4] = test system: CAL-27 (EGRF+) and OE19 (HER2+) cells; assay: Alamar Blue cell viability assay; format: cell-based, human; conditions: dose range, 72-96 h
CAL-27 cells [5] = assay: Clonogenic assay (SF2); format: cell-based, human; conditions: drug overnight then 2 Gy, mertansine 5 nM
Method: Following IR, cells were counted, re-plated at varying cell numbers in drug-free media. […] Surviving fraction at 2 Gy (SF2) was calculated as the fraction of cells surviving 2 Gy compared with non-irradiated cells.

[6] = test system: CALU3 (EGFR+, HER2+) cells; assay: Neutral comet assay; format: cell-based, human; conditions: 6 Gy, 2 nM overnight, vs vehicle or 20 nM antibody
Method: (§2) Cells were collected 15 min post IR, suspended in agarose gel and lysed per assay directions (Trevigen). Samples underwent electrophoresis under neutral conditions and were then stained with Sybr Green. Comet tails were counted in multiple fields (>60 cells per sample) and analysed using CometScore (TriTek Corp). Comet tail length was normalized to vehicle-treated, non-irradiated cells.

OE19 cells (HER2+) = assay: Neutral comet assay; format: cell-based, human
Method: as §2

CAL-27 tumour xenografts = assay: In vivo tumour xenograft experiments (tumour growth); set-up: species or system mice; conditions: non-irradiated tumours; day 0 dose: 0.5 nmol cetuximab or C-MMAE, 2 nmol free MMAE
Method: (§4) CAL-27, OE19, NCI N87 and HCT116 tumour xenografts were established and tumour growth was measured with digital calipers. Tumour volume was measured blindly to treatment group and calculated using the formula as 1/2×length×width. Mice were randomized into groups once the average tumour volume reached >100=113. […] For irradiated mice, the tumour-bearing hindlimbs were focally irradiated while the remainder of the mouse was shielded from IR with custom designed lead blocking >95% of the dose as verified by dosimeters placed on the mouse. […] To prevent unnecessary morbidity, mice were killed if tumour length exceeded 15 mm per protocol Nonlinear regression least squares fit was used to calculate tumour volume doubling times. […] To minimize the number of mice used, tumours were grown in the bilateral flanks.

HER2+ tumor cells = assay: Neutral comet assay following 2 Gy, FIG. 8; format: cell-based
Description: Neutral comet assay to measure DNA double strand breaks following 2 Gy of ionizing radiation (IR). IR increased comet tail length by 2.8 fold comapred to non-irradiated cells.

[7] = test system: HER2 expressing tumor cells; tumor cell lines; assay: Cell survival by Alamar Blue assay, FIG. 7; format: cell-based; conditions: across tumor cell lines
Description: MMAF potency can be increased and cytotoxicity restricted by antibody conjugation. Cell survival measured by Alamar Blue assay.

HCT116 cells [8] = assay: Cell cycle (propidium iodide, flow cytometry); format: cell-based, human; conditions: treated overnight
Method: as §1

[9] = test system: cell lines irrespective of HER2 expression; assay: Alamar Blue cell viability assay, cells based on HER2 expression; set-up: species or system human; conditions: 72-96 h
HCT116 cells [10] = assay: Clonogenic assay (SF2); format: cell-based, human; conditions: 5 nM mertansine overnight then 2 Gy
Method: Following IR, cells were counted, re-plated at varying cell numbers in drug-free media. 10-14 days after initial seeding formed colonies were methanol fixed, stained with crystal violet and counted. Surviving fraction at 2 Gy (SF2) was calculated as the fraction of cells surviving 2 Gy compared with non-irradiated cells.

HER2+ cell lines = assay: Neutral comet assay; format: cell-based, human; conditions: HER2+ cells; 20 nM overnight, 2 Gy
Method: as §2

HER2− cell lines = assay: Neutral comet assay; format: cell-based, human; conditions: HER2− cells; 20 nM overnight, 2 Gy
Method: as §2

CAL-27 cells [11] = test system: CAL-27 cells
Method: (§3) Alamar Blue (resazurin) was added to the cells and allowed to incubate for 2-4 h at 37° C. Plates were analysed using a plate reader with fluorescence measured at 560 nm.

OE19 cells [12] = assay: Alamar Blue cell viability assay; format: cell-based, human; conditions: OE19 (HER2 cell line); 72-96 h
HCT116 cells [13] = conditions: HCT116 (HER2−); 72-96 h
Method: as §3

[14] = test system: NCI N87 (gastric cancer) cells; conditions: NCI N87 (HER2 cell line); 72-96 h
Method: as §3

OE19 tumour xenografts = assay: Immunohistochemistry of tumour xenografts (pHistone H3, cleaved caspase 3); format: in vivo, mice; conditions: OE19 tumours harvested 48 h after injection
Method: Tissue sections were cut from blocks of formalin-fixed paraffin embedded xenografts. Four micron thick tissue sections were stained with antibodies to phosphohistone H3 (pH3, Abcam, catalogue number ab32107) and cleaved caspase-3 (C1C3, Cell Signaling Technology, catalogue number 9661) and used at dilutions of 1:300 and 1:900, respectively. Slides were stained on a Ventana Discovery Ultra (Ventana Medical Systems, Tucson, Ariz., USA). Antigen retrieval was performed using CC1 for 24-40 min at 95° C. The primary antibodies were incubated on the sections for 1 h at 37° C. Primary antibodies were visualized used DAB as a chromagen using the UltraMap system (Ventana Medical systems) followed by hematoxylin as a counterstain. Slides were rinsed, dehydrated through alcohol and xylene and coverslipped.
Immununostained slides were scanned using an Axio Scan.Z1 (Zeiss; Oberkochen, Germany). […] Whole-slide images were imported into Definiens Software for quantitative analysis (Definiens; Munich, Germany). […] For analysis of pH3 (a nuclear stain), the total number of nuclei and the total number of nuclei showing DAB staining (pH3 positive cells) were recorded within each ROI. The percent of positive nuclei was then calculated for each sample. For analysis of C1C3 (a cytoplasmic stain), mean DAB chromagen intensity was measured and calculated within the ROI for each sample.

[15] = test system: OE19 (HER2+) tumour xenografts; assay: In vivo tumour xenograft experiments (tumour growth); set-up: species or system mice; conditions: for Tumour doubling time in days (mean, 95% CI): OE19
Method: as §4

[16] = test system: NCI N87 (HER2+) tumour xenografts; assay: as above; set-up: species or system mice; conditions: for Tumour doubling time in days (mean, 95% CI): NCI N87
Method: as §4

[17] = test system: HCT116 (HER2−) tumour xenografts; assay: as above; set-up: species or system mice; conditions: for Tumour doubling time in days (mean, 95% CI): HCT116
Method: as §4

HER2+ tumours = conditions: combined with IR
Method: CAL-27, OE19, NCI N87 and HCT116 tumour xenografts were established and tumour growth was measured with digital calipers. […] Mice were assigned to indicated groups in ‘Results’. […] For irradiated mice, the tumour-bearing hindlimbs were focally irradiated while the remainder of the mouse was shielded from IR with custom designed lead blocking >95% of the dose as verified by dosimeters placed on the mouse. […] To minimize the number of mice used, tumours were grown in the bilateral flanks.

[18] = 0.25 nmol day 0, 2.5 Gy days 1, 2 and 3
[19] = 0.25 nmol i.v. day 0 + IR 2.5 Gy days 1, 2 and 3, extrapolated

Molecule: CC[C@H](C)[C@@H]([C@@H](CC(=O)N1CCC[C@H]1[C@H](OC)[C@@H](C)C(=O)N[C@H](C)[C@@H](O)c1ccccc1)OC)N(C)C(=O)[C@@H](NC(=O)[C@@H](NC)C(C)C)C(C)C [MMAE, monomethyl auristatin E] (H-[NMeV]V[Dil][Dolaproine]-X1)
- cell morphology (CAL-27 cells [1]): cells rounding up, indicative of G2/M
- cell cycle profile (G2/M) (CAL-27 cells [2]): cells accumulating in G2/M
- cell cycle profile (G2/M) (OE19 cells [3]): cells accumulating in G2/M
- cytotoxicity (cell viability) [4]: more potent compared with standard cytotoxic chemotherapies
- surviving fraction following 2 Gy (SF2) (CAL-27 cells [5]): decreased
- comet tail length after irradiation [6]: increased comet tail length to a similar degree
- comet tail length after irradiation (OE19 cells (HER2+); 6 Gy, 2 nM overnight): further increased comet tail length
- tumour growth (CAL-27 tumour xenografts): delayed tumour growth
- IR induced DNA damage (comet tail length) (HER2+ tumor cells): further increased IR induced DNA damage

Molecule: CC[C@H](C)[C@@H]([C@@H](CC(=O)N1CCC[C@H]1[C@H](OC)[C@@H](C)C(=O)N[C@@H](Cc1ccccc1)C(=O)O)OC)N(C)C(=O)[C@@H](NC(=O)[C@@H](NC)C(C)C)C(C)C [MMAF] (H-[NMeV]V[Dil][Dolaproine]F-OH)
- potency compared to MMAE [7]: decreased potency compared to MMAE across tumor cell lines
- IR induced DNA damage (comet tail length) (HER2+ tumor cells): not

Molecule: COc1cc2cc(c1Cl)N(C)C(=O)C[C@H](OC(=O)[C@H](C)N(C)C(=O)CCS)[C@]1(C)O[C@H]1[C@H](C)[C@@H]1C[C@@](O)(NC(=O)O1)[C@H](OC)/C=C/C=C(\C)C2 [mertansine]
- cell cycle profile (G2/M) (HCT116 cells [8]): increased the accumulation of both OE19 and HCT116 cells in the radiosensitive G2/M phase
- cell cycle profile (G2/M) (OE19 cells [3]): increased the accumulation of both OE19 and HCT116 cells in the radiosensitive G2/M phase
- IC50 ([9]; across cell lines, irrespective of HER2 expression): 10 nM
- surviving fraction following 2 Gy (SF2) (CAL-27 cells [5]): decreased further
- surviving fraction following 2 Gy (SF2) (HCT116 cells [10]): decreased further
- radiosensitization (IR induced DNA double-strand breaks) (HER2+ cell lines): radiosensitized by increasing IR induced DNA double-strand breaks in both HER2+ and HER2− cell lines
- radiosensitization (IR induced DNA double-strand breaks) (HER2− cell lines): radiosensitized by increasing IR induced DNA double-strand breaks in both HER2+ and HER2− cell lines

Molecule: CC(=O)O[C@H]1C(=O)[C@@]2(C)[C@H]([C@H](OC(=O)c3ccccc3)[C@]3(O)C[C@H](OC(=O)[C@H](O)[C@@H](NC(=O)c4ccccc4)c4ccccc4)C(C)=C1C3(C)C)[C@]1(OC(C)=O)CO[C@@H]1C[C@@H]2O [paclitaxel]
- cytotoxic potency (comparison) (CAL-27 cells [11]; HER2− CAL-27 cells): more potent than T-DM1

Molecule: ado-trastuzumab emtansine [T-DM1]
- cell cycle profile (G2/M) (HCT116 cells [8]): resembled vehide-treated cells
- cell cycle profile (G2/M) (OE19 cells [3]): blocked OE19 cells in G2/M
- IC50 (OE19 cells [12]): < 1 nM
- IC50 (CAL-27 cells [11]; CAL-27 (HER2−), 72-96 h): > 100 nM
- IC50 (HCT116 cells [13]): > 100 nM
- IC50 [14]: < 1 nM
- potency in relation to HER2 expression [9]: directly correlated with HER2 expression
- radiosensitization (IR induced DNA double-strand breaks) (HER2+ cell lines): restricted radiosensitization of HER2+cells
- radiosensitization (IR induced DNA double-strand breaks) (HER2− cell lines): appear inert to irradiated non-HER2 expressing cells
- radiosensitization (comet tail length) (OE19 cells (HER2+); doses as low as 2 nM T-DM1): radiosensitized OE19 cells
- apoptosis (cleaved caspase 3) in tumours (OE19 tumour xenografts): increased apoptosis
- cells in G2/M as measured by pS10 Histone H3 (OE19 tumour xenografts): increased the number of cells in radiosensitive G2/M phase
- tumour regression, combined with IR [15, 18]: significantly prolonged tumour regression
- Tumour doubling time in days (mean, 95% CI) [15, 19]: 66 (33+) days
- Tumour doubling time in days (mean, 95% CI) ([15]; 0.25 nmol i.v. day 0, no IR): 11 (8-17) days
- tumour control combined with IR vs other regimens ([15]; by day 22): superior to all other treatment
- tumour growth ([15]; single dose of 1 nmol, compared with control or trastuzumab by day 14): equally efficacious in slowing tumour growth
- tumour regression, combined with IR [16, 18]: significantly prolonged tumour regression
- Tumour doubling time in days (mean, 95% CI) [16, 19]: 113 (82-179) days
- Tumour doubling time in days (mean, 95% CI) ([16]; 0.25 nmol i.v. day 0, no IR): 23 (21-25) days
- tumour control combined with IR vs other regimens ([16]; by day 32): superior to all other treatment
- benefit of adding drug to IR [17, 18]: showed no benefit of adding T-DM1 to IR
- Tumour doubling time in days (mean, 95% CI) ([17]; 0.25 nmol i.v. day 0 + IR 2.5 Gy days 1, 2 and 3): 7 (5-12) days
- Tumour doubling time in days (mean, 95% CI) ([17]; 0.25 nmol i.v. day 0, no IR): 3 (2-5) days
- long term tumour control (survival curve) (HER2+ tumours): long term tumour control was observed
